Measured values: patent publication US20040014696A1, “Specificity in treatment of diseases” (priority 2003, published 2004)

Columns and labels:
[1] = Liver radioactivity in mice after repeated oral dosing; type: in vivo; details: oral 300 mg/kg daily for 8 days; for Total Liver Radioactivity: Cmin in liver; for Modified Ribavirin in liver: analyte modified Ribavirin
[2] = RBC radioactivity in mice after repeated oral dosing; type: in vivo; details: oral 300 mg/kg daily for 8 days; for Medium RBC Radioactivity (Mice): Cmin in RBCs
[3] = Liver radioactivity estimated from portal vs systemic plasma in portal vein-cannulated monkeys; type: in vivo
[4] = molecular target: T1, Adenosine deaminase (ADA) (Bos taurus, UniProt P56658); experiment: In vitro deamination by adenosine deaminase (UV 240 nm, mass spectrum); type: biochemical, calf; details: 0.2 mM compound with 0.5 μM ADA overnight, mass spectrum analysis
T1 construct: Adenosine deaminase (ADA) isolated from calf intestine; purchased Boehringer Mannheim; host or cells: calf intestine (tissue-isolated)
T1 sequence (P56658 1-363): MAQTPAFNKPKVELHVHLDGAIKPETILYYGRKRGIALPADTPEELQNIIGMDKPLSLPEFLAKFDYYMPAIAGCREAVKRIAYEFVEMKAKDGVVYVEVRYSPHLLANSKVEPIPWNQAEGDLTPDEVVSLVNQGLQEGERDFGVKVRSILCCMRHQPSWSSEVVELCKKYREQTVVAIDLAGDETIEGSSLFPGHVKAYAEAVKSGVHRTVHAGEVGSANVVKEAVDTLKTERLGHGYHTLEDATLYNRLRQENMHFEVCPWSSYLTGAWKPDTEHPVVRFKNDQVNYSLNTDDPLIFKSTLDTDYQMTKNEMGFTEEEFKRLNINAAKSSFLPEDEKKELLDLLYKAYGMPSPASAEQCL
Procedure: Adenosine deaminase (ADA) isolated from calf intestine was purchased from Boehringer Mannheim. The assay was performed in Dulbecco's PBS buffer (Na2HPO4, 8 mM; […] KCl, 2.7 mM; NaCl, 138 mM; pH 7.2) at room temperature (23° C.). […] Taking the limit of the UV assay method, the spontaneous hydrolysis of viramidine will be less than 2.5×10^−5 min^−1. […] The enzyme turnover number was estimated about 2.5 min^−1 at the current assay condition.

[5] = Spontaneous hydrolysis in Dulbecco's PBS buffer without enzyme; type: physicochemical
Procedure: Adenosine deaminase (ADA) isolated from calf intestine was purchased from Boehringer Mannheim. The assay was performed in Dulbecco's PBS buffer (Na2HPO4, 8 mM; […] KCl, 2.7 mM; NaCl, 138 mM; pH 7.2) at room temperature (23° C.). […] Taking the limit of the UV assay method, the spontaneous hydrolysis of viramidine will be less than 2.5×10^−5 min^−1.

RBCs = experiment: In vitro transport into RBCs; type: cell-based; details: in vitro studies (data not shown)
erythrocytes = experiment: Phosphorylation in erythrocytes; type: cell-based
Excerpt: For example, the selectivity of the pharmacological effect of 1-beta-D-ribofuranosyl-1,2,4-triazole-3-carboxamide (Ribavirin, Structure 1) is increased by covalently coupling an ═NH group to Ribavirin to form a carboxamidine group. Ribavirin is known to have antiviral properties in hepatitis virus-infected hepatocytes (e.g., see review Marcellin, P. and Benhamou J.; Treatment of chronic viral hepatitis, Baillieres Clin Gastroenteol 1994 June; 8(2):233-53). It is also known, that Ribavirin is readily phosphorylated in erythrocytes to the pharmacologically active form Ribavirin-phosphate at a significant rate (e.g., Homma, M. et al. High-performance liquid chromatographic determination of Ribavirin in whole blood to assess disposition in erythrocytes; Antimicrob Agents Chemother 1999 November; 43(11):2716-9), which reduces the selective pharmacological effect.

[6] = Toxicity findings (hemolytic anemia, RBCs) in Rhesus monkeys; details: 60 mg/kg followed by 30 mg/kg*day for 10 days
[7] = RBC radioactivity in portal vein-cannulated cynomolgus monkeys; details: for Medium RBC Radioactivity (Monkeys - multiple doses) / Medium RBC Radioactivity (Monkeys - single dose) / Time to peak radioactivity concentration in RBC: cynomolgus monkeys; for Medium RBC Radioactivity (Monkeys - multiple doses): projected steady state; for Medium RBC Radioactivity (Monkeys - single dose) / Time to peak radioactivity concentration in RBC: single oral dose 30 mg/kg

| Compound | Share of liver radioactivity accounted for by modified Ribavirin [1] | Total Liver Radioactivity [1] [μg equiv/g] | RTCA in liver ([1]; analyte RTCA) | Modified Ribavirin in liver [1] | Medium RBC Radioactivity (Mice) [2] [μg equiv/g] | Radioactivity concentration Cmin in RBCs, comparison ([2]; modified Ribavirin vs Ribavirin) | RBC radioactivity as compared to Ribavirin ([3]; monkeys) [%] | Liver radioactivity concentration, higher than after oral dosing of Ribavirin ([3]; portal vein-cannulated monkeys, oral administration) | Conversion to Ribavirin [4] | Spontaneous hydrolysis rate ([5]; limit of the UV assay method, pH 7.2) | Spontaneous hydrolysis in buffer ([5]; no enzyme, pH 7.2, 1.5 h, 23° C.) | Effect of zinc ion on spontaneous hydrolysis rate ([5]; zinc ion added to the buffer) | Transport into RBCs (RBCs) | Phosphorylation in erythrocytes (erythrocytes) | Toxicity findings on RBCs [6] | Medium RBC Radioactivity (Monkeys - multiple doses) ([7]; multiple dosing at 30 mg/kg) | Medium RBC Radioactivity (Monkeys - single dose) [7] | Time to peak radioactivity concentration in RBC [7] [h] | Radioactivity concentration Cmin in the liver, comparison ([1]; Ribavirin compared to modified Ribavirin) | Projected steady-state RBC radioactivity concentrations, comparison ([7]; multiple dosing at 30 mg/kg, Ribavirin compared to modified Ribavirin) |
| --- | --- | --- | --- | --- | --- | --- | --- | --- | --- | --- | --- | --- | --- | --- | --- | --- | --- | --- | --- | --- |
| N=C(N)c1ncn([C@@H]2O[C@H](CO)[C@@H](O)[C@H]2O)n1 [modified Ribavirin, 1-beta-D-ribofuranosyl-1,2,4-triazole-3-carboxamidine] | about 30% | 23.8 | not detected | ˜7.2 μg eguiv/g μg equiv/g | 0.38 | significantly lower | ~12 | approximately 50% | more than 75% | less than 2.5×10^−5 min^−1 | no spontaneous hydrolysis | does not enhance the spontaneous hydrolysis rate | not directly transported into RBCs | is not, or is only insignificantly phosphorylated in erythrocytes | no significant changes in RBCs | ˜606 μg equiv/g | ˜17 μg equiv/g | 24 | – | – |
| NC(=O)c1ncn([C@@H]2O[C@H](CO)[C@@H](O)[C@H]2O)n1 [Ribavirin, 1-beta-D-ribofuranosyl-1,2,4-triazole-3-carboxamide, reference compound] | – | 18.4 | – | not detected | 1.36 | – | – | – | – | – | – | – | – | – | suffered from hemolytic anemia and significant decrease in RBCs | ˜5089 μg equiv/g | ˜41 μg equiv/g | 24 | significantly lower | significantly higher |
